Experiments:
CLP-induced sepsis mice = assay: CLP-induced sepsis survival study; format: in vivo, C57BL6/J mice; conditions: AVR-48 10 mg/kg IV at 16 h and 24 h after CLP, imipenem 5 mg/kg SC at 30 min; 10 days; CLP alone 100% mortality within 72 h
Procedure: For CLP-induced lung injury, CLP was performed as previously described by us. As antibiotics are the standard of care in sepsis patients, one dose of imipenem was given SC at 5 mg/kg 30 min after the procedure, followed by two doses of AVR-48 (10 mg/kg, IV) at 16 h and 24 h following the surgery, and sacrificed after 72 h. The sham mice (controls) had the abdominal cavity opened, the cecum was not perforated, and the peritoneum was stitched back.
For the survival study of CLP-induced ALI, mice were injected with 2 doses of AVR-48 (IV) followed by 1 dose of imipenem (SC) as described in the CLP methodology, and allowed to survive for 10 days. Sterility was maintained throughout the procedure by operating the animals under a laminar hood. Following the procedure, the animals were returned back to the animal room for subsequent monitoring and follow up. The body temperature was recorded every 24h and feeding and social behavior was also observed. They were fed with semisolid food for 48h before resuming their regular chow diet. All mice were sacrificed after 10 days. (N=3 for sham and 5 for the rest of the groups). A CLP + imipenem group was not done in this study, as we have published this group […]
imipenem, better than CLP + imipenem alone. Histopathology of the vital organs was performed and scored as previously published (37, 38) and noted in the methods section of this paper.

LPS-induced ALI mice = assay: LPS-induced ALI murine model; format: in vivo, C57BL6/J mice
Procedure: For the mouse efficacy studies, both AVR-25 and AVR-48 were reconstituted in 0.9% sterile normal saline to give a final concentration of 10 mg/kg; 125 µL was administered intraperitoneally (IP) for hyperoxia- and LPS- induced lung injury, and IV via the lateral tail vein for CLP-induced lung injury. Imipenem (Primaxin®) was formulated in sterile 0.9% saline solution and administered subcutaneously (SC) at a dose of 5 mg/kg to mice in a 0.2 mL volume near the dorsal scapular region for CLP-induced lung injury study. LPS was dissolved in sterile 0.9% saline solution and 100 µL was administered intratracheally for the ALI study.
Three models of ALI were used in the current study: hyperoxia-, LPS-, and CLP-induced lung injury: LPS-induced ALI was induced by administering a one-time intratracheal instillation of LPS (100 µg in a volume of 100 µL). Animals were sacrificed after 24 h following LPS administration while two doses of AVR-25 and AVR-48 were administered (10 mg/kg, IP) at 4 h and 12 h following LPS dosing. Hyperoxia-induced ALI was initiated by keeping the mice in cages in airtight polypropylene chamber exposed to hyperoxia (100% oxygen) for 48 h, following a standard protocol. Two doses of AVR-25 and AVR-48 were administered (10 mg/kg, IP) at 4 h and 12 h following hyperoxia exposure, and mice were sacrificed after 48 h.
At the end of the experimental time points for all the above groups, the mice were euthanized with an overdose of a cocktail of xylazine (100 mg/kg)/ketamine (10 mg/kg, IP) and BALF and lung tissues were harvested for further analysis. Male mice were used for all the ALI experiments.
BALF was obtained from the anesthetized mice by cannulating the upper part of the trachea with a blunt 22-gauge needle and then by lavaging three times with 1.0 mL of cold PBS (pH 7.4). The fluid recovery rate was about 90%. Lavaged samples were kept on ice, and the BALF was centrifuged at 4 °C. Total cell counts in BALF were determined using the TC20 automated cell counter (Bio-Rad Laboratories, Inc., Hercules, CA, USA). The differential cell counts were performed on cytospin preparations after staining with the Hema 3 differential Staining kit (Fisher Scientific, Kalamazoo, MI, USA). Total protein concentration in the BALF was measured using the Pierce^TM BCA assay kit (Fisher Scientific Co, Houston, TX, USA), as previously described.
Lung endothelium permeability was determined by measuring the accumulation of Evans blue in the lungs, as previously described. In brief, Evans blue dye (EBD) solution (Sigma-Aldrich, Inc., St. Louis, MO, USA, 5 mg/mL) was injected into the tail vein at a concentration of 50 mg/kg before 30 min of the experimental time point. At the experimental time points, lungs were excised and weighed. EBD was extracted in 2 mL formamide kept in a water bath at 60 °C for 3 h, and the samples were centrifuged at 500 g for 10 min. The absorption of light at 595 nm was measured spectrophotometrically (Microplate reader, Bio-Rad Laboratories, Hercules, CA, USA) with the supernatants.
Interleukin (IL)-6, IL-1β, and IL-10 were quantified on BALF while E-selectin was quantified in lung homogenate using commercially available DuoSet® ELISA kits (R&D Systems, Minneapolis, MN, USA) according to the manufacturer’s instructions, as previously described. Briefly, Nalgene Nunc Maxisorp™ plates were coated overnight with antibodies to IL-6 (2 µg/mL), IL-1β (2 µg/mL) IL-10 (2 µg/mL), or E-selectin (2 µg/mL) and the following morning plates were washed and blocked for 2 h. Samples were added to the wells at various dilutions and then incubated with detection antibody for 2 h. Plates were subsequently washed, and streptavidin-HRP conjugate antibody was added to each well for 20 min. […]

[1] = 10 mg/kg IP at 4 h and 12 h after LPS, 24 h, vs untreated ALI mice

CC(=O)N[C@H]1[C@H](Oc2ccc([N+](=O)[O-])cc2)O[C@H](CO)[C@@H](O)[C@@H]1O [AVR-48, N-((2S,3R,4R,5S,6R)-4,5-dihydroxy-6-(hydroxymethyl)-2-(4-nitrophenoxy)tetrahydro-2H-pyran-3-yl) acetamide]
survival (CLP-induced sepsis mice): 80%
pro-inflammatory cytokines IL-1β and IL-6 levels in BALF and lung tissues (LPS-induced ALI mice; 10 mg/kg IP at 4 h and 12 h after LPS, 24 h, ELISA, Western blot): decreased
neutrophil cell counts in BALF (LPS-induced ALI mice; [1]): decreased counts
total inflammatory cell counts in BALF (LPS-induced ALI mice; [1]): decreased counts
Evans Blue dye leak concentration in the lungs (LPS-induced ALI mice; 10 mg/kg IP x2): diminished levels
expression of lung adhesion molecules ICAM-1, VCAM-1, and E-selectin in whole lung tissue (LPS-induced ALI mice; 10 mg/kg IP x2): decreased expression
total proteins in BALF (pulmonary edema) (LPS-induced ALI mice; 10 mg/kg IP x2): diminished levels
lung injury score (H&E) (LPS-induced ALI mice; 10 mg/kg IP x2, 0-4 scoring, vs ALI mice without treatment): decreased lung injury scores
IL-10 levels in BALF (LPS-induced ALI mice; 10 mg/kg IP x2, ELISA, vs non-treated ALI mice): further increase
expression of cleaved caspase-3 in lungs (lung cell death) (LPS-induced ALI mice; 10 mg/kg IP x2, Western blot): reduced expression
expression of endothelial AJ proteins VE-cadherin and β-catenin in whole lungs (LPS-induced ALI mice; 10 mg/kg IP x2, Western blot): increased expression

Reference: paper PMC7961996, “Small Immunomodulatory Molecules as Potential Therapeutics in Experimental Murine Models of Acute Lung Injury (ALI)/Acute Respiratory Distress Syndrome (ARDS)” (International Journal of Molecular Sciences, 2021)
